Measurements published in patent publication US8946249B2, “Compound, certain novel forms thereof, pharmaceutical compositions thereof and methods for preparation and use” (Hutchinson Medipharma Limited, priority 2009, dated 2015).

Assays:
[1] = biological target: T1, recombinant human KDR catalytic domain (Homo sapiens, UniProt P35968); test: KDR kinase inhibition, Z'-LYTE assay kit; type: biochemical; settings: 10 μM ATP, 1 μM Tyr1 peptide, 25° C., 1 hour
T1 construct: 300 ng/mL of recombinant human KDR catalytic domain
Method: The KDR kinase inhibition activity of the above three compounds is tested using the Z-Lyte assay kit.
Z′-LYTE™ Tyr1 peptide (Invitrogen, Cat. PV3190) is used to test the KDR kinase inhibitory activity of the above three compounds. The testing system contains 300 ng/mL of recombinant human KDR catalytic domain, 10 μM of ATP, 1 μM of substrate peptide, and a test compound at a series of different concentrations in 384-well plate (Thermo Labsystems, Cat. 7805); total volume is 10 μL. The enzymatic inhibition proceeds at room temperature (25° C.) for 1 hour on the shaker, followed by addition of 5 μL of enhancer and incubation for an additional 1 hour at room temperature on the shaker. 5 μL of stop solution is added to stop the reaction. The KDR kinase inhibition activity of a test compound is calculated based on the method recommended by the manufacturer. The IC50 values of the KDR kinase inhibition activity are calculated using XLfit software.
(1) Dilution of the test compounds: each of the above three compounds is dissolved in DMSO to prepare a […] stock solution and stored in −20° C. freezer. The stock solution is diluted to the four times concentration of the desired test concentration with 8% DMSO before use. […]
(7) Kinase inhibition: Add the following components in turn in a 384-well plate. […] Seal the plate with aluminum foil and allow the reaction to proceed at room temperature (25° C.) for 1 hour on the shaker (250 rpm). • e) Dilution of enhancer solution (right before use): according to the recommendation of manufacturer, dilute enhancer stock with development dilution buffer 128-fold. • f) Fluorescence enhancement: add 5 μL/well of the diluted enhancer solution in all wells, briefly spin at 1000 rpm, re-seal the plate and let the reaction proceed at room temperature for an additional hour on the shaker. • g) Add 5 μL/well of stop solution to all wells, briefly spin at 1000 rpm. Mix at room temperature for 2 minutes on the shaker, and read florescence signals on Victor3 (Perkin Elmer) at excitation 400 nm, emission 445 nm/530 nm. […]

hERG channels = biological target: T2, hERG channels (Homo sapiens, UniProt Q12809); test: hERG whole-cell patch clamp in CHO cells stably transfected with hERG cDNA; type: cell-based; settings: CHO cells expressing hERG, tail current; read-out: hERG current inhibition IC50
T2 construct: expressed in transfected cells; host or cells: CHO
Method: A CHO cell line stably transfected with hERG cDNA and expressing hERG channels was used for the study. Cells were cultured in a medium comprising:
Before testing, cells were harvested using an Accumax (Innovative Cell Technologies).
Whole-cell recording was performed using a 700B (Axon Instruments). The cells were voltage clamped at a holding potential of −80 mV. The hERG current was activated by depolarizing at +20 mV for 2 sec, after which the current was taken back to −50 mV for 2 sec to remove the inactivation and observe the deactivating tail current. The first step at −50 mV was used as a baseline for measuring the tail current peak amplitude.
Test compound was prepared as a 10 mM DMSO stock solution in a glass vial. The stock solution was mixed vigorously for 10 minute at room temperature. The stock solution was diluted in a glass vial using External Solution; the dilution was prepared no longer than 30 minutes before use. Equal amounts of DMSO (0.1%) were present at final dilution.
After achieving whole-cell configuration, the cells were monitored for 90 sec to assess stability and washed with external solution for 66 sec. The voltage protocol described above was then applied to the cells every 20 sec throughout the whole procedure. […]
Data were analyzed using Clampfit (both by Axon Instruments) and Origin 7 (Originlab Corporation).

[2] = Hygroscopicity, saturated salt solution method; type: physicochemical; settings: 10 days, 25° C.; for Stability under the testing humidity conditions: crystalline form unchanged; for Hygroscopicity (in words): saturated NaCl solution
Method: The desiccator was closed and left standing for 10 days at 25° C. Then the samples were taken out and weighed again, and the weight gain was calculated.

[3] = Thermodynamic stability comparison, slurry of Form I and Form II mixture; type: physicochemical; settings: 1 g each of Form I and Form II in 10 mL methanol, 60° C., 20 h, powder X-ray diffraction
Text: Then the suspension was filtered with a Buchner funnel and paper disk, and dried under a vacuum oven.

[4] = Pharmacokinetics study in mice; type: in vivo; settings: male, ICR; mouse plasma, single oral dose 10 mg/kg
Method: Experimental Method: The pharmacokinetics of the test compounds were studied with male ICR mice (n=6 for each group, weight 20˜30 g) after a single intraveneous (i.v.) and oral (p.o.) dosing at 2.5 and 10 mg/kg, respectively. For i.v. dosing formulation, the test compound was dissolved in DMSO (0.25%)-solutol (10%)-ethanol (10%)-physiological saline (79.75%) at the concentration of 0.25 mg/mL. And the p.o. dosing formulation (1 mg/mL) was prepared with 0.5% CMC-Na. After i.v. or p.o. dosing, blood samples were collected via the ophthalmic vein at 0 (pre-dose), 5, 15, 30 min and 1, 1.5, 2, 4, 8, 24 h, anti-coagulated with heparin-Na. After centrifugation, plasma samples were separated and protein precipitated with acetonitrile (containing internal standard). The concentration of the testing compounds in these plasma samples were then determined by LC/MS/MS.

FGFR1 kinase = biological target: T3, FGFR1 kinase (Homo sapiens, UniProt P11362); test: FGFR1 kinase activity assay, Transcreener FP; type: biochemical; settings: 10 μM ATP, 60 minutes, room temperature
T3 construct: purchased Invitrogen PV3146
Method: The Transcreener FP technology of Bellbrook Labs is used in the FGFR1 kinase activity assay. The kinase reaction was done in 96-well half area black plate (Greiner, Cat. 675076). In each well, were added 5 μL of test compounds in 5% DMSO, 10 μL of 0.3 ng/μL FGFR1 kinase (Invitrogen, PV3146) diluted in assay buffer. The reaction was started by the addition of 10 of 62.5 ng/μL poly (Glu:Tyr, 4:1) substrate (Sigma, P0275) and 25 μmol/L of ATP mixture, and incubated for 60 minutes at room temperature. The final conditions for kinase assay were: 10 μM of ATP, 0.12 ng/μL of FGFR1 kinase, 25 ng/μL of substrate, 53.6 mmol/L of HEPES (pH 7.5), 21.6 mmol/L of MgCl2, 0.536 mmol/L of MnCl2, 1 mmol/L of DTT and 0.01% Triton X-100, 1% DMSO.
At the same time, an ADP standard curve was performed. The standard curve mimics a kinase reaction in the absence of test compound, kinase, and lipid substrate. The standard curve contained 12 concentration points, and total [ATP+ADP] ranged from 10 μM to 0.01 μM. […]
After reacting for 60 minutes at room temperature, 25 μL of transcreener Kinase Kit reagent—ADP Detection Mix—(Bellbrook Labs) was added and reacted for an additional 1.0 hours. The plates were then read in Tecan Infinite F500 at an excitation of 610 nm and an emission of 670 nm. […] The inhibition of test compound on ADP production was calculated based on ADP concentration calculated from standard curve. […]

T1 sequence (P35968 834-1162 limits assumed): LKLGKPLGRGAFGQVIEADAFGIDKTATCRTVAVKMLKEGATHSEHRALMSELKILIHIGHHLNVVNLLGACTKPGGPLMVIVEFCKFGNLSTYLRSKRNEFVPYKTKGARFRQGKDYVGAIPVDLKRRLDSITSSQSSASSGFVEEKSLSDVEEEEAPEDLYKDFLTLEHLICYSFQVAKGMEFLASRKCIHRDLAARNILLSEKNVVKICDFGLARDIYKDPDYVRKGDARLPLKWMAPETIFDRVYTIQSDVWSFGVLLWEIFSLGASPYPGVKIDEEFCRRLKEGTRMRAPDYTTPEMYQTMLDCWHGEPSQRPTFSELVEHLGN
T2 sequence (Q12809 whole entry): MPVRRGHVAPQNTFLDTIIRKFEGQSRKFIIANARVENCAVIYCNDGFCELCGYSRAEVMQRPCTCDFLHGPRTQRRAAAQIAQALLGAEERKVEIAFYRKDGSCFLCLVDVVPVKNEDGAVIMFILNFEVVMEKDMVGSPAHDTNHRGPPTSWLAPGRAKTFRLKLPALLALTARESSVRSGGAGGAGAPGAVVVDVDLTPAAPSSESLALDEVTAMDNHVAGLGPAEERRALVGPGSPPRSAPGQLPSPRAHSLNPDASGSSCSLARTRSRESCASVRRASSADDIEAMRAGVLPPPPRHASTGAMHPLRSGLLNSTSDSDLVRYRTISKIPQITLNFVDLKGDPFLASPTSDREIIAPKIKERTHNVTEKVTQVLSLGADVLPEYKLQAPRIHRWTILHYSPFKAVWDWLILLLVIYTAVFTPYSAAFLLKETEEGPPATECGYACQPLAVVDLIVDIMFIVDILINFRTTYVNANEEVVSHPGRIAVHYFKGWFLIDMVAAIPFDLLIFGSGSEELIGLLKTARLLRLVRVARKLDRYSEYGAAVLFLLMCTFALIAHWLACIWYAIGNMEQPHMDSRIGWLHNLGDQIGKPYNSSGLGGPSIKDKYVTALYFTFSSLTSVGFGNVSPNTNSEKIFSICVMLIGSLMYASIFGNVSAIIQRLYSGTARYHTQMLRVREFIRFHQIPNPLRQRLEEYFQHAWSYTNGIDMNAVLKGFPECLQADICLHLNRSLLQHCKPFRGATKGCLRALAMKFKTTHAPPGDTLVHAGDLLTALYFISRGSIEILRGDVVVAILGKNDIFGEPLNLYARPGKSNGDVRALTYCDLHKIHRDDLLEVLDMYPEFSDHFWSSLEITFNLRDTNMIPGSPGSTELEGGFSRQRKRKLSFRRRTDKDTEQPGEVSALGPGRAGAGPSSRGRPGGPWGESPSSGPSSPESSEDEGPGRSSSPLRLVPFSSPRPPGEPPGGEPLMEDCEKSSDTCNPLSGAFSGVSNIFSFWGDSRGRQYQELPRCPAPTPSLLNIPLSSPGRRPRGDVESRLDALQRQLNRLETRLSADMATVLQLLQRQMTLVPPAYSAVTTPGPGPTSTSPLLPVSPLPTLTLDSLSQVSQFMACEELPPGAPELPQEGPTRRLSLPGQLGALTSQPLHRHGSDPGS
T3 sequence (P11362 22-822): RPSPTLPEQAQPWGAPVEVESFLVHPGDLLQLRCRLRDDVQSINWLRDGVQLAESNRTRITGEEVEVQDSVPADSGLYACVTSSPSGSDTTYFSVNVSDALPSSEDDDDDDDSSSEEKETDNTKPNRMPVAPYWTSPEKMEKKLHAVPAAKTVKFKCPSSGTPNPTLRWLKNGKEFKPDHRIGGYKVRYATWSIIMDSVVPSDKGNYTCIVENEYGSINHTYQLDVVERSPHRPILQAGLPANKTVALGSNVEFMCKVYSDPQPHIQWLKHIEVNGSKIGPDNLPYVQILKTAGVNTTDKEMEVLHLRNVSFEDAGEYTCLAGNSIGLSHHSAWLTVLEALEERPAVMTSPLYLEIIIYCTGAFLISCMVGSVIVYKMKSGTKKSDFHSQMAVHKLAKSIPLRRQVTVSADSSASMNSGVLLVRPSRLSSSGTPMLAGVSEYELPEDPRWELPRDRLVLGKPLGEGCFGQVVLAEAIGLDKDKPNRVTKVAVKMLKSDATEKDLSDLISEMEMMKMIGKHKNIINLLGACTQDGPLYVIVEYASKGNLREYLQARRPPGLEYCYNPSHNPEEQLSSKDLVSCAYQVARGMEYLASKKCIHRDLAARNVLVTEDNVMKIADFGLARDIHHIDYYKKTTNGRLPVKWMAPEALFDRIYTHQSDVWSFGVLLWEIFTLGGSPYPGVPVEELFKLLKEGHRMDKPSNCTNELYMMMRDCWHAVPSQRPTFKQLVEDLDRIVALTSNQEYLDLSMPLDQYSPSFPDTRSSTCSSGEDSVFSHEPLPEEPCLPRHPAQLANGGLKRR

| SMILES | IC50 [1] [nM] | IC50 (hERG channels) [nM] | Stability under the testing humidity conditions [2] | Hygroscopicity (in words) ([2]; listed as Form I sample) | Thermodynamic stability, form after slurry [3] | AUC [4] [ng·h/mL] | Cmax [4] [ng/mL] | IC50 (FGFR1 kinase) [nM] | Hygroscopicity (in words) [2] |
| --- | --- | --- | --- | --- | --- | --- | --- | --- | --- |
| Cc1cc2c(F)c(Nc3ccnc(Nc4cccc(OCCN5CCOCC5)c4)n3)ccc2[nH]1 [compound of Formula C, N^4-(4-fluoro-2-methyl-1H-indol-5-yl)-N^2-(3-(2-morpholinoethoxy)phenyl)pyrimidine-2,4-diamine, reference compound] | 111 | 547 |  |  |  |  |  |  |  |
| Cc1cc2cc(Oc3ccnc(Nc4cccc(CS(=O)(=O)NCCN(C)C)c4)n3)ccc2[nH]1 [Form I, Form I N-(2-(dimethylamino)ethyl)-1-(3-((4-((2-methyl-1H-indol-5-yl)oxy)pyrimidin-2-yl)amino)phenyl)-methanesulfonamide] |  |  | stable | non-hygroscopic | physically and/or thermodynamically more stable than Form II |  |  |  |  |
| CNS(=O)(=O)Cc1cccc(Nc2nccc(Oc3ccc4[nH]c(C)cc4c3)n2)c1 [Compound B, N-methyl-1-(3-((4-((2-methyl-1H-indol-5-yl)oxy)pyrimidin-2-yl)amino)phenyl)methanesulfonamide, reference compound] | 38 |  |  |  |  | 26 | 20 |  |  |
| Cc1cc2cc(Oc3ccnc(Nc4cccc(CS(=O)(=O)NCCN(C)C)c4)n3)ccc2[nH]1 [Compound A, N-(2-(dimethylamino)ethyl)-1-(3-((4-((2-methyl-1H-indol-5-yl)oxy)pyrimidin-2-yl)amino)phenyl)-methanesulfonamide] | 21 | 6800 |  |  |  | 397 | 138 | 53 |  |
| Cc1cc2cc(Oc3ccnc(Nc4cccc(CS(=O)(=O)NCCN(C)C)c4)n3)ccc2[nH]1 [Form II, Form II N-(2-(dimethylamino)ethyl)-1-(3-((4-((2-methyl-1H-indol-5-yl)oxy)pyrimidin-2-yl)amino)phenyl)methanesulfonamide] |  |  | stable |  | transformed to the Form I |  |  |  | slightly hygroscopic |
